Results reported in patent publication US5252571A, “1,4-benzothiazine-2-acetic acid derivatives” (Sapporo Breweries Limited, priority 1990, dated 1993).
Blank lines part the entries; values can stand above or below the molecule they belong to.

Tests used:
aldose reductase = molecular target: T1, aldose reductase (Sus scrofa, UniProt P80276); assay: Aldose reductase inhibitory activity (porcine crystalline lens enzyme); type: biochemical; conditions: d1-glyceraldehyde 3 mM, pH 6.2, 25° C., 2 minutes
T1 construct: porcine crystalline lens stored at -80° C. was homogenized in distilled water; from tissue; host or cells: porcine crystalline lens
Method: Aldose reductase enzyme standard was prepared from porcine crystalline lens by the method of Hayman et al. (cf., S. Hayman et al., Journal of Biological Chemistry, 240, 877-882, 1965). That is, porcine crystalline lens stored at -80° C. was homogenized in distilled water followed by centrifugation at 10,000 XG for 15 minutes. The supernatant was dissolved to make 40% ammonium sulfate solution. The supernatant centrifuged at 10,000 XG for further 10 minutes was dialyzed to 0.05 M sodium chloride solution overnight. The thus obtained dialysate was used as the enzyme standard.
The activity of aldose reductase was determined by the method of Hayman et al. supra. That is, 25 μl of the enzyme solution described above and […] of a drug solution in 1% DMSO having various concentrations were added to 200 μl of 40 mM phosphate buffer (pH 6.2) prepared to contain […] lithium sulfate and 0.1 MM NADPH (reduced nicotinamide adenine dinucleotide phosphate) in final concentrations and Containing 3 mM d1-glyceraldehyde as substrate, respectively. Thereafter, the mixture was reacted at 25° C. for 2 minutes and change in absorbance at 340 nm was determined using COBAS FARA II (Roche Co.).

[1] = system: tissue sorbitol in streptozotocin-induced diabetic rats; assay: Inhibitory activity of accumulation of tissue sorbitol in streptozotocin-induced diabetic rats; type: in vivo, Sprague-Dawley rats; conditions: 30 mg/kg oral 4, 8 and 24 hours after streptozotocin, control = 100%, Tukey's test *p < 0.05, **p < 0.01; for Accumulation of Tissue Sorbitol (%), Nerve: sciatic nerve
Method: 4) Inhibitory activity of accumulation of tissue sorbitol in streptozatocini-induced diabetic rats.
Sprague-Dawley rats (male,6 weeks of age, one group composed of 5 to 6 rats), fasted overnight, were made diabetic by single intravenous injection of 60 mg/kg body weight of streptozotocin (SIGMA Co. ) , which had been freshly dissolved in normal saline solution.
The compound was orally administered in the form of 0.5% carboxymethylcellulose suspension in a dose of 30 mg/kg 4, 8 and 24 hours after the injection of streptozotocin. During the test, rats were free access to feed and water. Three hours after the final administration, the sorbitol contens in tissues (red blood cell, sciatic nerve, lens) Were determined by the enzyme method of Bergmeyer et al. [cf., H. Y. Bergmeyer et al., Methods of Enzymatic Analysis, 3, 1323-1330, 1974], using SDH (sorbitol dehydrogenase) and AND (β-nicotinamide adenine dinucleotide). The results are shown by percentage (%) when the value obtained with control group administered with 0.5% carboxymethylcellulose solution as a solvent instead of the compound was made 100%.

ICR strain mice = assay: Safety test, single oral administration in mice with 14 days observation; type: in vivo; conditions: 300 mg/kg oral, male ICR mice
Method: Next, safety of the compounds of the present invention was verified by the following test.
After normal ICR strain mice (male, 7 weeks age, 5 mice being into one group) was fasted for 18 hours, each compound (300 mg/kg) of Examples 1311, 132, 134, 156, 173, 179, 183 and 188 was orally administered in the form of 0.5% carboxymethylcellulose suspension. In the control group, 0.5% carboxymethylcellulose solution alone was orally administered. […] During the observation, mice were free access to feed and water.

Compound: CCOc1ccc2c(c1)SC(CC(=O)O)C(=O)N2Cc1nc2cc(F)ccc2s1 (centres unmarked) [Example 133, 2-[7-Ethoxy-4-(5-fluorobenzothiazol-2-yl)methyl-3,4-dihydro-3-oxo-2H-1,4-benzothiazin-2-yl]acetic acid]
IC50 (aldose reductase): 15 nM

Compound: O=C(O)CC1Sc2ccccc2N(Cc2nc3c(Cl)c(Cl)ccc3s2)C1=O (centres unmarked) [Example 154, 2-[4-(4,5-Dichlorobenzothiazol-2-yl)methyl-3,4-dihydro-3-oxo-2H-1,4-benzothiazin-2-yl]acetic acid]
Accumulation of Tissue Sorbitol (%), Lens [1]: 59.0%
Accumulation of Tissue Sorbitol (%), Red Blood Cell [1]: 3.3%
Accumulation of Tissue Sorbitol (%), Nerve [1]: 18.6%

Compound: Cc1ccc2c(c1)N(Cc1nc3cc(F)ccc3s1)C(=O)C(CC(=O)O)S2 (centres unmarked) [Example 132, 2-[4-(5-Fluorobenzothiazol-2-yl)methyl-6-methyl-3,4-dihydro-3-oxo-2H -1,4-benzothiazin-2-yl]acetic acid]
body weight (ICR strain mice): progressed as in the control group
mice dead (ICR strain mice): none

Compound: Cc1ccc2c(c1)N(Cc1nc3c(Cl)c(Cl)ccc3s1)C(=O)C(CC(=O)O)S2 (centres unmarked) [Example 156, 2-[4-(4,5-Dichlorobenzothiazol-2-yl)methyl-6-methyl-3,4-dihydro-3-oxo-2H-1,4-benzothiazin-2-yl]acetic acid]
body weight (ICR strain mice): progressed as in the control group
mice dead (ICR strain mice): none

Compound: O=C(O)CC1Sc2c(F)cccc2N(Cc2nc3c(F)c(F)cc(F)c3s2)C1=O (centres unmarked) [Example 208, 2-[4-(4,5,7-Trifluorobenzothiazol-2-yl)methyl-8-fluoro-3,4-dihydro-3-oxo-2H-1,4-benzothiazin-2-yl]acetic acid]
Accumulation of Tissue Sorbitol (%), Lens [1]: 31.5%
Accumulation of Tissue Sorbitol (%), Red Blood Cell [1]: 22.9%
Accumulation of Tissue Sorbitol (%), Nerve [1]: 0.0%

Compound: Cc1ccc2c(c1)N(Cc1nc3cc(F)cc(F)c3s1)C(=O)C(CC(=O)O)S2 (centres unmarked) [Example 179, 2-[4-(5,7-Difluorobenzothiazol-2-yl)methyl-6-methyl-3,4-dihydro-3-oxo-2H-1,4-benzothiazin-2-yl]acetic acid]
body weight (ICR strain mice): progressed as in the control group
mice dead (ICR strain mice): none

Compound: O=C(O)CC1Sc2ccccc2N(Cc2nc3cc(F)ccc3s2)C1=O (centres unmarked) [Example 131, 2-[4-(5-fluorobenzothiazol-2-yl]methyl-3,4-dihydro-3-oxo-2H-1,4-benzothiazin-2-yl]acetic acid]
IC50 (aldose reductase): 15 nM
body weight (ICR strain mice): progressed as in the control group
mice dead (ICR strain mice): none

Compound: O=C(O)CC1Sc2ccc(F)cc2N(Cc2nc3c(F)c(F)ccc3s2)C1=O (centres unmarked) [Example 209, 2-[4-(4,5-Difluorobenzothiazol-2-yl)methyl-6-fluoro-3,4-dihydro-3-oxo-2H-1,4-benzothiazin-2-yl]acetic acid]
Accumulation of Tissue Sorbitol (%), Lens [1]: 25.2%
Accumulation of Tissue Sorbitol (%), Red Blood Cell [1]: 24.7%
Accumulation of Tissue Sorbitol (%), Nerve [1]: 3.1%

Compound: O=C(O)CC1Sc2ccccc2N(Cc2nc3c(F)ccc(F)c3s2)C1=O (centres unmarked) [Example 158, 2-[4-(4,7-Difluorobenzothiazol-2-yl)methyl-3,4-dihydro-3-oxo-2H-1,4-benzothiazin-2-yl]acetic acid]
Accumulation of Tissue Sorbitol (%), Lens [1]: 58.4%
Accumulation of Tissue Sorbitol (%), Red Blood Cell [1]: 39.2%
Accumulation of Tissue Sorbitol (%), Nerve [1]: 33.1%

Compound: Cc1ccc2c(c1)N(Cc1nc3cc(Cl)ccc3s1)C(=O)C(CC(=O)O)S2 (centres unmarked) [Example 139]
IC50 (aldose reductase): 14 nM

Compound: O=C(O)CC1Sc2ccccc2N(Cc2nc3cc(F)cc(F)c3s2)C1=O (centres unmarked) [Example 173, 2-[4-(5,7-Difluorobenzothiazol-2-yl)methyl-3,4-dihydro-3-oxo-2H-1,4-benzothiazin-2-yl]acetic acid]
IC50 (aldose reductase): 14 nM
body weight (ICR strain mice): progressed as in the control group
mice dead (ICR strain mice): none

Compound: Cc1cc(C)c2c(c1)N(Cc1nc3cc(F)ccc3s1)C(=O)C(CC(=O)O)S2 (centres unmarked) [Example 134, 2-[6,8-Dimethyl-4-(5-fluorobenzothiazol-2-yl)methyl-3,4-dihydro-3-oxo-2H-1,4-benzothiazin-2-yl]acetic acid]
body weight (ICR strain mice): progressed as in the control group
mice dead (ICR strain mice): none

The next lines start with results.

IC50 (aldose reductase): 9.8 nM
Compound: O=C(O)CC1Sc2cc(OC(F)(F)F)ccc2N(Cc2nc3cc(F)cc(F)c3s2)C1=O (centres unmarked) [Example 187, 2-[4-(5,7-Difluorobenzothiazol-2-yl)methyl-7-trifluoromethoxy-3,4-dihydro-3-oxo-2H-1,4-benzothiazin-2-yl]acetic acid]

IC50 (aldose reductase): 16 nM
Compound: O=C(O)CC1Sc2cccc(F)c2N(Cc2nc3cc(F)ccc3s2)C1=O (centres unmarked) [Example 177, 2-[5-Fluoro-4-(5-fluorobenzothiazol-2-yl)methyl-3,4-dihydro-3-oxo-2H-1,4-benzothiazin-2-yl]acetic acid]

IC50 (aldose reductase): 8.7 nM
Compound: O=C(O)CC1Sc2cc(Cl)ccc2N(Cc2nc3c(F)c(F)cc(F)c3s2)C1=O (centres unmarked) [Example 202, 2-[4-(4,5,7-Trifluorobenzothiazol-2-yl)methyl-7-chloro-3,4-dihydro-3-oxo-2H-1,4-benzothiazin-2-yl]acetic acid]

IC50 (aldose reductase): 14 nM
Compound: O=C(O)CC1Sc2ccccc2N(Cc2nc3ccc(F)c(F)c3s2)C1=O (centres unmarked) [Example 155, 2-[4-(6,7-Difluorobenzothiazol-2-yl)methyl-3,4-dihydro-3-oxo-2H-1,4-benzothiazin-2-yl]acetic acid]
Accumulation of Tissue Sorbitol (%), Lens [1]: 36.8%
Accumulation of Tissue Sorbitol (%), Red Blood Cell [1]: 0.0%
Accumulation of Tissue Sorbitol (%), Nerve [1]: 7.0%

IC50 (aldose reductase): 7.7 nM
Compound: Cc1ccc2c(c1)SC(CC(=O)O)C(=O)N2Cc1nc2ccc(F)c(F)c2s1 (centres unmarked) [Example 199, 2-[4-(6,7-Difluorobenzothiazol-2-yl)methyl-7-methyl-3,4-dihydro-3-oxo-2H-1,4-benzothiazin-2-yl]acetic acid]

IC50 (aldose reductase): 14 nM
Compound: Cc1ccc2c(c1)N(Cc1nc3c(F)cccc3s1)C(=O)C(CC(=O)O)S2 (centres unmarked) [Example 176, 2-[4-(4-Fluorobenzothiazol-2-yl)methyl-6-methyl-3,4-dihydro-3-oxo-2H-1,4-benzothiazin-2-yl]acetic acid]

IC50 (aldose reductase): 14 nM
Compound: O=C(O)CC1Sc2ccccc2N(Cc2nc3ccc(Cl)c(Cl)c3s2)C1=O (centres unmarked) [Example 160, 2-[4-(6,7-Dichlorobenzothiazol-2-.yl)methyl-3,4-dihydro-3-oxo-2H-1,4-benzothiazin-2-yl]acetic acid]

IC50 (aldose reductase): 9.1 nM
Compound: O=C(O)CC1Sc2ccccc2N(Cc2nc3c(Cl)c(Cl)cc(Cl)c3s2)C1=O (centres unmarked) [Example 166, 2-[4-(4,5,7-Trichlorobenzothiazol-2-yl)methyl-3,4-dihydro-3-oxo-2H-1,4-benzothiazin-2-yl]acetic acid]

IC50 (aldose reductase): 12 nM
Compound: O=C(O)CC1Sc2cc(F)ccc2N(Cc2nc3cc(F)cc(F)c3s2)C1=O (centres unmarked) [Example 182, 2-[4-(5,7-Difluorobenzothiazol-2-yl)methyl-7-fluoro-3,4-dihydro-3-oxo-2H-1,4-benzothiazin-2-yl]acetic acid]

IC50 (aldose reductase): 6.8 nM
Compound: COc1ccc2c(c1)N(Cc1nc3c(Cl)c(Cl)ccc3s1)C(=O)C(CC(=O)O)S2 (centres unmarked) [Example 206, 2-[4-(4,5-Dichlorobenzothiazol-2-yl)methyl-6-methoxy-3,4-dihydro-3-oxo-2H-1,4-benzothiazin-2-yl]acetic acid]
